PubChem BioAssay AID2060906 (Molecular Pharmacology Branch, DTP, NCI, 2025)

System: 485176-168-R4-J1-PDC complex spheroid growth
Assay: Anticancer human tumor 485176-168-R4-J1-PDC patient-derived pancreatic adenocarcinoma cell line growth inhibition [RAS]
Details: for IC50: curve of first compound; for viability, T/C: stronger effect = lower value
Source text: RAS pathway inhibitors in Combinations in Complex Spheroids
A high-throughput screen of multi-cell type tumor spheroids was designed to identify active combinations of RAS pathway inhibitors and targeted small molecules. Complex spheroids include a stromal component modeled by human endothelial cells (HUVEC) and fibroblasts modeled by human mesenchymal stem cells (MSCs). The concentration ranges selected for each drug and investigational agent were based upon clinically achievable concentrations if the clinical Cmax of the agent was known.
Compounds. The drugs and investigational agents: abemaciclib (NSC768073), cobimetinib (NSC768068), divarasib (GDC6063, NSC841802), docetaxel (NSC628503), GDC-1971 (RLY-1971, NSC841576), gemcitabine (NSC613327), inavolisib (NSC800729), ipatasertib (NSC767898), KB-0742 (NSC834161), MRTX-1133 (NSC836407), osimertinib (NSC779217), RMC-4630 (NSC839698), RMC-6236 (NSC851965), RMC-6291 (NSC852671), Ro-3306 (NSC812927), sapanisertib (NSC764658), SN-38 (NSC673596), staurosporine (NSC755774), SY5609 (NSC837396), and tovorafenib (DAY101, NSC766906), were obtained from the National Cancer Institute (NCI) Developmental Therapeutics Program Chemical Repository. The FDA-approved anticancer drug set is available from the NCI Developmental Therapeutics Program. […] The stock solutions were prepared in dimethyl sulfoxide (DMSO, Sigma-Aldrich, St. Louis, MO, cat. D2650) at 800-fold the tested concentration and stored at -70 degrees C prior to their use. All drugs and investigational agents were tested over a range starting from a high concentration at or near the clinical Cmax and decreasing in half-log increments. If the clinical Cmax for an agent had not been determined, the highest concentration tested was 10 microM.
Cell Culture. All cells were maintained in an incubator at 37 degrees C and 5% CO2 with 95% humidity. The PDC lines were cultured according to standard operating procedures established by the NCI PDMR. All PDCs were thawed and cultured in Matrigel-coated flasks prepared with a working solution of 1X Ham's F-12 nutrient mix, without supplementation (Invitrogen, Waltham, MA, cat. 11765054), 100 U/mL penicillin-streptomycin (Invitrogen, cat. 15140122), and 2.5% Matrigel (Corning Inc., Corning, NY, cat. 354248) for the first three passages. The 362531-283-R-J2-PDC and 782815-120-R-J1-PDC lines were cultured in 6C/Colon 1B media, which includes advanced DMEM/F-12 (Thermo Fisher Scientific, cat. 12634028), 10 mM HEPES (Thermo Fisher Scientific, cat. 15630080), 1X GlutaMAX supplement (Thermo Fisher Scientific, cat. 35050061), 0.1 mg/mL primocin (InvivoGen, San Diego, CA, cat. ant-pm-2), 10% defined fetal bovine serum, heat inactivated (HyClone Laboratories Inc., Logan, UT, cat. SH30070.03HI), 50% L-WRN conditioned media (ATCC, cat. CRL-3276), 1.25 mM N-Acetyl-L-cysteine (Sigma-Aldrich, cat. A9165), 10 mM nicotinamide (Sigma-Aldrich, cat. N0636), 1X B-27 supplement (Thermo Fisher Scientific, cat. 17504044), 1X N-2 supplement (Thermo Fisher Scientific, cat. 17502048), 50 ng/mL human EGF (Thermo Fisher Scientific, cat. PHG0311), and 10 microM Y-27632 dihydrochloride (Tocris Bioscience, cat. 1254). The K12877-001-R-J1-PDC line was cultured in 6I media, which includes all 6C/Colon 1B media plus 10 ng/mL human FGF-10 (PeproTech, cat. 100-26), 1 ng/mL human FGF-2 (PeproTech, cat. 100-18B), 1 µM prostaglandin E2 (Tocris Bioscience, cat. 2296), […] hydrocortisone (Sigma-Aldrich, cat. H4001), and […] bovine insulin (Sigma-Aldrich, cat. I6634). The K86415-001-R-J1-PDC line was cultured in 6D media, which includes all 6C/Colon 1B media components minus the L-WRN conditioned media. The 485176-168-R4-J1-PDC was cultured in PANC media, which includes all 6C/Colon 1B media plus 100 ng/mL human FGF-10 (PeproTech, cat. 100-26), 500 nM SB-431542 (Selleckchem, cat. S1067), and 10 nM gastrin (Tocris Bioscience, cat. 3006). […]
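Note: spheroids exposed to compounds for seven days before readout.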
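Throughout, for viability, T/C: luminescence viability expressed relative to DMSO vehicle wells set as 100%.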

SMILES: CCc1c2c(nc3ccc(O)cc13)-c1cc3c(c(=O)n1C2)COC(=O)[C@]3(O)CC + C#Cc1c(F)ccc2cc(O)cc(-c3ncc4c(N5CC6CCC(C5)N6)nc(OCC56CCCN5CC(F)C6)nc4c3F)c12
- IC50 (second compound 0.0316 µM): 0.0193 µM
- IC50 (second compound 0.1 µM): 0.0134 µM
- IC50 (second compound 0.316 µM): 0.0164 µM
- IC50 (second compound 1 µM): 0.0178 µM
- IC50 (second compound 3.16 µM): 0.0221 µM
- IC50 (second compound 10 µM): 0.0272 µM
- viability, T/C (second compound 0.0316 µM, first compound 0.000949 µM): 93.9%
- viability, T/C (second compound 0.0316 µM, first compound 0.003 µM): 82.8%
- viability, T/C (second compound 0.0316 µM, first compound 0.00949 µM): 71.2%
- viability, T/C (second compound 0.0316 µM, first compound 0.03 µM): 36.8%
- viability, T/C (second compound 0.0316 µM, first compound 0.0949 µM): 16.7%
- viability, T/C (second compound 0.0316 µM, first compound 0.3 µM): 7.74%
- viability, T/C (second compound 0.1 µM, first compound 0.000949 µM): 102%
- viability, T/C (second compound 0.1 µM, first compound 0.003 µM): 96.7%
- viability, T/C (second compound 0.1 µM, first compound 0.00949 µM): 52.9%
- viability, T/C (second compound 0.1 µM, first compound 0.03 µM): 32.2%
- viability, T/C (second compound 0.1 µM, first compound 0.0949 µM): 18.3%
- viability, T/C (second compound 0.1 µM, first compound 0.3 µM): 6.56%
- viability, T/C (second compound 0.316 µM, first compound 0.000949 µM): 112%
- viability, T/C (second compound 0.316 µM, first compound 0.003 µM): 107%
- viability, T/C (second compound 0.316 µM, first compound 0.00949 µM): 60.7%
- viability, T/C (second compound 0.316 µM, first compound 0.03 µM): 35.2%
- viability, T/C (second compound 0.316 µM, first compound 0.0949 µM): 16%
- viability, T/C (second compound 0.316 µM, first compound 0.3 µM): 6.47%
- viability, T/C (second compound 1 µM, first compound 0.000949 µM): 102%
- viability, T/C (second compound 1 µM, first compound 0.003 µM): 94.4%
- viability, T/C (second compound 1 µM, first compound 0.00949 µM): 63%
- viability, T/C (second compound 1 µM, first compound 0.03 µM): 38.6%
- viability, T/C (second compound 1 µM, first compound 0.0949 µM): 15.9%
- viability, T/C (second compound 1 µM, first compound 0.3 µM): 7.94%
- viability, T/C (second compound 3.16 µM, first compound 0.000949 µM): 94.7%
- viability, T/C (second compound 3.16 µM, first compound 0.003 µM): 101%
- viability, T/C (second compound 3.16 µM, first compound 0.00949 µM): 69.3%
- viability, T/C (second compound 3.16 µM, first compound 0.03 µM): 42.9%
- viability, T/C (second compound 3.16 µM, first compound 0.0949 µM): 19.1%
- viability, T/C (second compound 3.16 µM, first compound 0.3 µM): 9.06%
- viability, T/C (second compound 10 µM, first compound 0.000949 µM): 127%
- viability, T/C (second compound 10 µM, first compound 0.003 µM): 90.6%
- viability, T/C (second compound 10 µM, first compound 0.00949 µM): 77.9%
- viability, T/C (second compound 10 µM, first compound 0.03 µM): 46.6%
- viability, T/C (second compound 10 µM, first compound 0.0949 µM): 17.7%
- viability, T/C (second compound 10 µM, first compound 0.3 µM): 6.96%
